The record followed here is publication PMC10419416, “Fighting Pseudomonas aeruginosa Infections: Antibacterial and Antibiofilm Activity of D-Q53 CecB, a Synthetic Analog of a Silkworm Natural Cecropin B Variant” (International Journal of Molecular Sciences, 2023).

Values after ≈ are worked out from the molar mass of the structure shown. Non-standard residues stand in square brackets, D forms with d. Residues, ends and D or L forms follow the SMILES beside them. No end group written: not given here.

Holding throughout (assay type): cell-based, Pseudomonas aeruginosa
The test system of test [1] is P. aeruginosa ATCC 27853 and ATCC 25668 strains. The test is described as follows: microbe, parasite or virus in culture. Conditions: ATCC 27853, 24 h. As for the experimental part: The following strains were used: P. aeruginosa ATCC 27853, ATCC 25668, and PAO1-L (Lausanne subline). All strains were grown at 37 °C in Luria Bertani (LB) medium or in Luria Bertani Agar (LBA) plates.
The antibacterial activities of L- and D-Q53 CecB were evaluated by determining (i) the MIC and (ii) the MBC. Tobramycin (Merck) was used as an antibiotic control. (i) An overnight (ON) bacterial culture was diluted to 1 × 10^6 cells/mL in LB medium. 50 µL/well were seeded in sterile polypropylene 96-well plates (Corning, Corning, NY, USA) and added with 50 µL LB medium, containing serial dilutions of each compound (final concentrations of L- and D-Q53 CecB peptides from 1.1 to 35.2 µM; final concentrations of tobramycin from 0.26 to 17 μM; each condition in triplicate). Microbial suspensions in the growing medium (positive control) and wells with only the medium (negative controls) were processed in parallel. Plates were incubated 24 h at 37 °C with agitation (300 rpm), and the absorbance was measured at 600 nm in a microplate reader. The MIC was considered as the lowest concentration determining a delta optical density at 600 nm (ΔOD600) equal to 0 ± 0.05. The ΔOD600 was determined by subtracting the OD600 recorded at time 0 from that obtained after 24 h. Each experiment was performed at least three times. […] For each sample, 100 μL of 1:10, 1:100, and 1:1000 dilutions were plated on LBA plates, and colonies were counted after 24 h at 37 °C. […] Each experiment was performed at least twice.

Test [2] deals with P. aeruginosa ATCC 25668, mucoid strain. The test is described as follows: Degradation of pre-formed 24 h old biofilm, crystal violet. The note with it: for mean decrement in biomass of pre-formed biofilm: 1 h treatment of 24 h old biofilm. The method, then: (§1) One hundred μL of bacteria (1 × 10^6 cells/mL), derived from a fresh ON culture, were seeded in a sterile non-treated polystyrene 96-well plate (Corning) and incubated for 24 h at 37 °C without agitation. […] Evaluation of biofilm biomass was performed using a crystal violet assay as described above (Section 4.8). Experiments were performed two-four times.

In test [3] the test system is P. aeruginosa ATCC 27853, non-mucoid strain. Described as above. The note with it: for mean decrement in biomass of pre-formed biofilm: 1 h treatment of 24 h old biofilm. The method, then: as §1
For test [4], the system named is P. aeruginosa ATCC 27853 and ATCC 25668 strains. The test is described as follows: Growth curves with sub-MIC concentrations. Conditions: growth curves 14 h, OD600, AUC vs untreated; both strains; 1 MIC = 2.2 μM. As for the experimental part: Microbial suspensions in LB medium (positive controls) and wells with LB medium only (negative controls) were followed in parallel. Plates were incubated at 37 °C with agitation (300 rpm), and the absorbance was measured every 2 h for 14 h at 600 nm. For each time point, a ΔOD600 was determined by subtracting the OD600 recorded at time 0 from those obtained at the different time-points. To establish the peptide concentration not inhibiting bacterial growth, for each treatment, the Area Under the Curve (AUC) was calculated and compared to that of untreated controls.
Supplementary Figure S3. Growth curves of P. aeruginosa treated with of L-Q 53 CecB and D-Q 53 CecB peptides at sub-MIC concentrations. ATCC 27853 strain treated with (A) L-Q 53 CecB and (B) D-Q 53 CecB. ATCC 25668 strain treated with (C) L-Q 53 CecB and (D) D-Q 53 CecB. Bacteria treated with 1 MIC L- or D- Q53 CecB peptides and untreated bacteria represent positive and negative controls, respectively. One-w ay ANOVA followed by post-h oc Dunnett’s tests […]
samples and negative controls [A TCC 27853: (A) F4, 10 = 257.8, p < 0.0001; 1/2 MIC L-Q 53 CecB vs negative controls:
Dunnett’s test p > 0.05, ns; (B) F 4,10 = 256.9, p < 0.0001; 1/4 MIC D-Q 53 CecB vs negative controls: Dunnett’s test p > 0.05, […]
= 43.58, p < 0.0001; 1/4 MIC D-Q 53 CecB vs negative controls: Dunnett’s test p > 0.05, ns]. […]

Test [5] concerns P. aeruginosa biofilms (ATCC 25668). The test is described as follows: Confocal live/dead staining of biofilm-embedded cells. The note with it: 1 h treatment with 1 MIC (2.2 µM) of 24 h-old biofilm; SYTO 9 / Propidium Iodide. As for the experimental part: Bacteria cells (1 × 10^6 cells/mL) were grown in Permanox four-wells chamber slide systems (1.8 cm^2/well; Nunc® Lab-Tek® Chamber Slide™ system) at 37 °C for 24 h without agitation to allow biofilm formation. After washing, biofilms were treated with 2.2 μM L- or D-Q53 CecB peptide for 1 h at 37 °C without agitation. Negative controls, treated with LB only, were followed in parallel.
To visualize live/dead bacteria, samples were stained with 12. 5 μM SYTO™ 9 (Thermo Fisher Scientific) (green, total cells) and 70 μM Propidium Iodide (Merck) (red, dead cells) for 30 min. After washing with PBS, samples were mounted in VECTASHIELD® mounting medium (Vector Laboratories) and observed using a Leica TCS SP5 II confocal microscope, using a ×63 oil immersion objective and a digital magnification of ×3. Optical sections (Z-series) were taken at 0.13 μm intervals. For each condition, experiments were repeated at least twice.
To detect bacteria (green), excitation and emission wavelengths were 488 and 500–530 nm, respectively. EPS was visualized using a 405 nm wavelength for excitation and 413–480 nm for emission (blue); to detect proteins or Propidium Iodide (red), a 543 nm wavelength for excitation and 590–610 nm for emission were used. Post-acquisition analyses were performed with Fiji (http://fiji.sc/wiki/index.php, downloaded on 4 April 2022). […]

`CC[C@@H](C)[C@@H](NC(=O)[C@@H](C)NC(=O)[C@@H](CCCCN)NC(=O)[C@@H](C)NC(=O)[C@@H](CO)NC(=O)CNC(=O)[C@@H](CC(C)C)NC(=O)[C@H](NC(=O)[C@@H](CCC(N)=O)NC(=O)[C@H](NC(=O)[C@@H](C)NC(=O)[C@H]1CCCN1C(=O)CNC(=O)[C@@H](C)NC(=O)[C@@H](CCCCN)NC(=O)[C@H](NC(=O)[C@H](NC(=O)CNC(=O)[C@@H](CC(=O)O)NC(=O)[C@@H](CCCNC(=N)N)NC(=O)[C@H](NC(=O)[C@@H](CC(N)=O)NC(=O)[C@@H](CCCNC(=N)N)NC(=O)CNC(=O)[C@@H](CCSC)NC(=O)[C@@H](CCCCN)NC(=O)[C@@H](CCC(=O)O)NC(=O)[C@H](NC(=O)[C@@H](CCCCN)NC(=O)[C@@H](CCCCN)NC(=O)[C@@H](Cc1ccccc1)NC(=O)[C@H](NC(=O)[C@@H](CCCCN)NC(=O)[C@@H](Cc1c[nH]c2ccccc12)NC(=O)[C@H](N)CCCNC(=N)N)[C@H](C)CC)[C@H](C)CC)[C@H](C)CC)[C@H](C)CC)C(C)C)[C@H](C)CC)C(C)C)C(N)=O` [D-Q53 CecB] (H-[dR][dW][dK][dI][dF][dK][dK][dI][dE][dK][dM]G[dR][dN][dI][dR][dD]G[dI][dV][dK][dA]G[dP][dA][dI][dQ][dV][dL]G[dS][dA][dK][dA][dI]-NH2; N-terminus and C-terminus assumed) displayed an MBC in test [1] of 4.40 µM (≈ 17.1 µg/mL). Moreover, the “mean decrement in biomass of pre-formed biofilm” value in test [2] (1/2 MIC (1.1 μM)) was found to be 38%; in test [2] (8 MIC (17.6 μM)), 52%; in test [3] (1/2 MIC (1.1 μM)), 49%; in test [3] (8 MIC (17.6 μM)), 64%. Further, the “reduction of pre-formed biofilm” value in test [2] (1/4 MIC (0.55 μM), 1 h) is recorded as “lost its ability to reduce pre-formed biofilms”; in test [3] (1/4 MIC (0.55 μM), 1 h), “lost its ability to reduce pre-formed biofilms”. In addition, the “sub-MIC concentration not inhibiting bacterial growth” value in test [4] was 1/4. For the same compound, in test [5], the “red/green (dead/total) cell ratio vs untreated controls” value is “Significant increments”.

Regarding “RWKIFKKIEKMGRNIRDGIVKAGPAIQVLGSAKAI-NH2 [L-Q53 CecB]”, the MBC in test [1] was determined as 11 µM. The “reduction of pre-formed biofilm biomass” value in test [2] (4 MIC, 1 h, single sample) is recorded as “significant biofilm biomass decrements”. Further, the “reduction of pre-formed biofilm biomass at all tested concentrations” value in test [2] (1 h, L-Q53 CecB 1/2 to 8 MIC (except 4 MIC), tobramycin 1 to 8 MIC) is recorded as “did not significantly reduce biofilm biomass”; in test [3] (1 h, L-Q53 CecB 1/2 to 8 MIC, tobramycin 1 to 8 MIC), “did not significantly reduce biofilm biomass”. Further, the “sub-MIC concentration not inhibiting bacterial growth” value in test [4] is reported as 1/2. Also, the “red/green (dead/total) cell ratio vs untreated controls” value in test [5] is “Significant increments”.
